Columns and labels:
[1] = tested on: Hepatotoxicity;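 on HepSE cirrhosis: cirrhosis hepatic side effect score taken from the DILIps (drug-induced liver injury prediction) training set; call rule not given here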;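 on HepSE elevated liver function tests: hepatic side effect score for raised liver function tests, as recorded in the DILIps training set used for predicting drug-induced liver injury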; on HepSE hepatic failure: call rule not given here;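 on HepSE jaundice: Jaundice-related hepatic side-effect score drawn from the training data of the DILIps (drug-induced liver injury prediction system); call rule not given here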; on HepSE liver disease: call rule not given here;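 on HepSE liver fatty: hepatic side effect score for fatty liver, taken from the DILIps training set for predicting drug-induced liver injury; call rule not given here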;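 on HepSE liver function tests abnormal: hepatic side effect score taken from the DILIps (drug-induced liver injury prediction system) training data, here covering abnormal liver function test findings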
[2] = tested on: Hepatotoxicity; remark: listed apart in the source;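 on HepSE cirrhosis: cirrhosis hepatic side effect score taken from the DILIps (drug-induced liver injury prediction) training set; call rule not given here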;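 on HepSE elevated liver function tests: hepatic side effect score for raised liver function tests, as recorded in the DILIps training set used for predicting drug-induced liver injury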; on HepSE hepatic failure: call rule not given here;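 on HepSE jaundice: Jaundice-related hepatic side-effect score drawn from the training data of the DILIps (drug-induced liver injury prediction system); call rule not given here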; on HepSE liver disease: call rule not given here;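 on HepSE liver fatty: hepatic side effect score for fatty liver, taken from the DILIps training set for predicting drug-induced liver injury; call rule not given here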;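 on HepSE liver function tests abnormal: hepatic side effect score taken from the DILIps (drug-induced liver injury prediction system) training data, here covering abnormal liver function test findings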
[3] = tested on: Hepatotoxicity; remark: listed apart in the source;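 on HepSE cirrhosis: cirrhosis hepatic side effect score taken from the DILIps (drug-induced liver injury prediction) training set; call rule not given here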;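 on HepSE elevated liver function tests: hepatic side effect score for raised liver function tests, as recorded in the DILIps training set used for predicting drug-induced liver injury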; on HepSE hepatic failure: call rule not given here;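 on HepSE jaundice: Jaundice-related hepatic side-effect score drawn from the training data of the DILIps (drug-induced liver injury prediction system); call rule not given here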; on HepSE liver disease: call rule not given here;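 on HepSE liver fatty: hepatic side effect score for fatty liver, taken from the DILIps training set for predicting drug-induced liver injury; call rule not given here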;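 on HepSE liver function tests abnormal: hepatic side effect score taken from the DILIps (drug-induced liver injury prediction system) training data, here covering abnormal liver function test findings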
[4] = tested on: Hepatotoxicity; remark: listed apart in the source;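 on HepSE elevated liver function tests: hepatic side effect score for raised liver function tests, as recorded in the DILIps training set used for predicting drug-induced liver injury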; on HepSE hepatic failure: call rule not given here;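 on HepSE jaundice: Jaundice-related hepatic side-effect score drawn from the training data of the DILIps (drug-induced liver injury prediction system); call rule not given here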; on HepSE liver disease: call rule not given here;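 on HepSE liver fatty: hepatic side effect score for fatty liver, taken from the DILIps training set for predicting drug-induced liver injury; call rule not given here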;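 on HepSE liver function tests abnormal: hepatic side effect score taken from the DILIps (drug-induced liver injury prediction system) training data, here covering abnormal liver function test findings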
[5] = tested on: Hepatotoxicity; remark: listed apart in the source; on HepSE hepatic failure: call rule not given here; on HepSE liver disease: call rule not given here
[6] = tested on: Hepatotoxicity; remark: listed apart in the source; on HepSE hepatic failure: call rule not given here; on HepSE liver disease: call rule not given here
[7] = tested on: Hepatotoxicity; remark: listed apart in the source
[8] = tested on: Hepatotoxicity; remark: listed apart in the source
[9] = tested on: Hepatotoxicity; remark: listed apart in the source
[10] = tested on: Hepatotoxicity; remark: listed apart in the source
[11] = tested on: Hepatotoxicity; remark: listed apart in the source
[12] = tested on: Hepatotoxicity; remark: listed apart in the source
[13] = tested on: Hepatotoxicity; remark: listed apart in the source
[14] = tested on: Hepatotoxicity; remark: listed apart in the source

Row | Compound | HepSE_liver fatty [1] | HepSE_elevated liver function tests [2] | HepSE_liver disease [3] | HepSE_jaundice [4] | HepSE_hepatic failure [5] | HepSE_liver function tests abnormal [6] | HepSE_cirrhosis [7] | HepSE_bilirubinemia [8] | HepSE_cholelithiasis [9] | HepSE_hepatic necrosis [10] | HepSE_hepatitis [11] | HepSE_hepatomegaly [12] | HepSE_Combined Scores [13] | HepSE_cholecystitis [14] | also measured
1 | COc1cc2c(cc1OC)C(=O)C(CC1CCN(Cc3ccccc3)CC1)C2 (centres undefined) [DONEPEZIL] | 0 | 0 | 0 | 1 | 0 | 1 | 0 | 1 | 1 | 0 | 1 | 0 | 6 | 1 | –
2 | CC[C@@H](C(N)=O)N1CCCC1=O | 0 | 0 | 0 | 0 | 1 | 0 | 0 | 0 | 0 | 0 | 1 | 0 | 2 | 0 | –
3 | CC(C)(C#N)c1cc(Cn2cncn2)cc(C(C)(C)C#N)c1 [ANASTROZOLE] | 0 | 1 | 0 | 0 | 0 | 0 | 0 | 0 | 0 | 0 | 1 | 0 | 2 | 0 | –
4 | C[C@]12C=CC(=O)C=C1CC[C@H]1[C@@H]3C[C@@H](O)[C@](O)(C(=O)CO)[C@@]3(C)C[C@H](O)[C@@]12F [TRIAMCINOLONE] | 0 | 0 | 0 | 0 | 0 | 0 | 0 | 0 | 0 | 0 | 0 | 1 | 1 | 0 | –
5 | CCC(=O)O[C@](Cc1ccccc1)(c1ccccc1)[C@H](C)CN(C)C [PROPOXYPHENE] | 0 | 0 | 0 | 1 | 0 | 1 | 0 | 0 | 0 | 0 | 0 | 0 | 2 | 0 | –
6 | Nc1nc(=O)[nH]cc1F [FLUCYTOSINE] | 0 | 0 | 0 | 1 | 0 | 0 | 0 | 0 | 0 | 0 | 0 | 0 | 1 | 0 | –
7 | CN1C(C(=O)Nc2ccccn2)=C(O)c2ccccc2S1(=O)=O [PIROXICAM] | 0 | 0 | 0 | 1 | 1 | 0 | 0 | 0 | 0 | 0 | – | 0 | 3 | 0 | –
8 | CCOc1nc2cccc(C(=O)O)c2n1Cc1ccc(-c2ccccc2-c2nnn[nH]2)cc1 | 0 | 0 | 0 | 0 | 0 | 0 | 0 | 0 | 1 | 0 | 1 | 0 | 2 | 0 | –
9 | COc1ccc2c3c1O[C@H]1C(=O)CC[C@@]4(O)[C@@H](C2)N(C)CC[C@]314 [OXYCODONE] | – | – | – | – | – | – | – | – | – | – | – | – | – | – | HepSE_liver fatty ([1]; Liver): 0; HepSE_elevated liver function tests ([2]; Liver): 0; HepSE_liver disease ([3]; Liver): 0; HepSE_jaundice ([4]; Liver): 0; HepSE_hepatic failure ([5]; Liver): 0; HepSE_liver function tests abnormal ([6]; Liver): 0; HepSE_cirrhosis ([7]; Liver): 0; HepSE_bilirubinemia ([8]; Liver): 0; HepSE_cholelithiasis ([9]; Liver): 0; HepSE_hepatic necrosis ([10]; Liver): 0; HepSE_hepatitis ([11]; Liver): 0; HepSE_hepatomegaly ([12]; Liver): 1; HepSE_Combined Scores ([13]; Liver): 1; HepSE_cholecystitis ([14]; Liver): 0
10 | CN1CCC(=C2c3ccccc3CCc3sccc32)CC1 [PIZOTYLINE] | 0 | 0 | 0 | 0 | 0 | 0 | 0 | 0 | 0 | 0 | 0 | 0 | 0 | 0 | –
11 | GADOFOSVESET TRISODIUM | 0 | 0 | 0 | 0 | 0 | 0 | 0 | 0 | 0 | 0 | 0 | 0 | 0 | 0 | –
12 | CCOC(=O)C1=C[C@@H](OC(CC)CC)[C@H](NC(C)=O)[C@@H](N)C1 [OSELTAMIVIR] | 0 | 0 | 0 | 0 | 1 | 1 | 0 | 0 | 0 | 0 | 1 | 0 | 3 | 0 | –
13 | CC[C@H]1OC(=O)[C@H](C)C(=O)[C@H](C)[C@@H](O[C@@H]2O[C@H](C)C[C@H](N(C)C)[C@H]2O)[C@](C)(OC)C[C@@H](C)C(=O)[C@H](C)[C@H]2N(CCCCn3cnc(-c4cccnc4)c3)C(=O)O[C@]12C [TELITHROMYCIN] | – | – | – | – | – | – | – | – | – | – | – | – | – | – | HepSE_liver fatty ([1]; Liver): 0; HepSE_elevated liver function tests ([2]; Liver): 0; HepSE_liver disease ([3]; Liver): 0; HepSE_jaundice ([4]; Liver): 1; HepSE_hepatic failure ([5]; Liver): 1; HepSE_liver function tests abnormal ([6]; Liver): 1; HepSE_cirrhosis ([7]; Liver): 0; HepSE_bilirubinemia ([8]; Liver): 0; HepSE_cholelithiasis ([9]; Liver): 0; HepSE_hepatic necrosis ([10]; Liver): 1; HepSE_hepatitis ([11]; Liver): 1; HepSE_hepatomegaly ([12]; Liver): 0; HepSE_Combined Scores ([13]; Liver): 5; HepSE_cholecystitis ([14]; Liver): 0
14 | CCCCN(CCCC)CCC(O)c1cc2c(Cl)cc(Cl)cc2c2cc(C(F)(F)F)ccc12 (centres undefined) [HALOFANTRINE] | 0 | 0 | 0 | 0 | 0 | 0 | 0 | 0 | 0 | 0 | 0 | 0 | 0 | 0 | –
15 | CC1COc2c(N3CCN(C)CC3)c(F)cc3c(=O)c(C(=O)O)cn1c23 (centres undefined) [OFLOXACIN] | 0 | 0 | 0 | 1 | 1 | 0 | 0 | 0 | 1 | 1 | 1 | 0 | 6 | 1 | –
16 | CC(C)OC(=O)C(C)(C)Oc1ccc(C(=O)c2ccc(Cl)cc2)cc1 [FENOFIBRATE] | 1 | 0 | 0 | 1 | 0 | 1 | 1 | 0 | 1 | 0 | 1 | 0 | 7 | 1 | –
17 | O=C(CCCN1CCC(O)(c2ccc(Cl)cc2)CC1)c1ccc(F)cc1 [HALOPERIDOL] | 0 | 0 | 0 | 1 | 0 | 0 | 0 | 0 | 0 | 0 | 0 | 0 | 1 | 0 | –
18 | CC(C)NCC(O)COc1ccc(CC(N)=O)cc1 (centres undefined) [ATENOLOL] | – | – | – | – | – | – | – | – | – | – | – | – | – | – | HepSE_liver fatty ([1]; Liver): 0; HepSE_liver disease ([3]; Liver): 0; HepSE_jaundice ([4]; Liver): 0; HepSE_hepatic failure ([5]; Liver): 0; HepSE_cirrhosis ([7]; Liver): 0; HepSE_bilirubinemia ([8]; Liver): 0; HepSE_cholelithiasis ([9]; Liver): 0; HepSE_hepatic necrosis ([10]; Liver): 0; HepSE_hepatitis ([11]; Liver): 0; HepSE_hepatomegaly ([12]; Liver): 0; HepSE_Combined Scores ([13]; Liver): 0; HepSE_cholecystitis ([14]; Liver): 0

— ChEMBL document CHEMBL1909294, “Translating clinical findings into knowledge in drug safety evaluation--drug induced liver injury prediction system (DILIps)” (PLoS Comput Biol, 2011)
